In paper PMC7385619, “A triple action CDK4/6-PI3K-BET inhibitor with augmented cancer cell cytotoxicity” (Cell Discovery, 2020):
pIC50: −log10 of the molar value.

How the values were obtained:
CDK6 = biological target: T1, CDK6 (Homo sapiens, UniProt Q00534); test: In vitro kinase assay, CDK6; assay type: biochemical; settings: Fig. 1b; italicized values from the literature (italics not visible)
T1 construct: purchased Reaction Biology

[1] = Cell viability (cytotoxicity) assay, normal tonsillar epithelial cells; assay type: cell-based; settings: human, normal tonsillar epithelial cells (RRP008), surrogate for toxicity of normal tissue, read-out: Half maximal inhibitory concentration (IC50) in cell line cytotoxicity assays, Tonsillar Epithelia
CDK4 = CDK4 (Homo sapiens, UniProt P11802); test: In vitro kinase assay, CDK4; assay type: biochemical; settings: Fig. 1b; italicized values from the literature (italics not visible)
Chain of CDK4 (P11802 whole entry): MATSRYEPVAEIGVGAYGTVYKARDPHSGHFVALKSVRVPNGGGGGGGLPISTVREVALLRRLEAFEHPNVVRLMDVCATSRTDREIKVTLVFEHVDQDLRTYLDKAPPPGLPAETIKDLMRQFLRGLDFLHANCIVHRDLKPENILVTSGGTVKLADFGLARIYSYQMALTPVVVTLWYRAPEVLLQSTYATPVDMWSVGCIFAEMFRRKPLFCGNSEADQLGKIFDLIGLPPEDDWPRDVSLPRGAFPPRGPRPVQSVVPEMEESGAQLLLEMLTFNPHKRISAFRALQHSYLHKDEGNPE
Chain of CDK4 (P24385 whole entry partner): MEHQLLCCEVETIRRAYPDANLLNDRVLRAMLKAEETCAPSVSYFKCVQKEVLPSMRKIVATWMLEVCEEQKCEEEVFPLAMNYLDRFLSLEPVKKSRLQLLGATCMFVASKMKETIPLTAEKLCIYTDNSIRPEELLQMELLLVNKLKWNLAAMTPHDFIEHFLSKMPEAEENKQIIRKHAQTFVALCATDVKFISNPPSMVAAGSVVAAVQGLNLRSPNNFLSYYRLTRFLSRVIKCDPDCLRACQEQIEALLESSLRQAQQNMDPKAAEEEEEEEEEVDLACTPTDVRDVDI

[2] = tested on: mantle cell lymphoma (Granta-519, Mino, and Jeko-1); test: Cell viability (cytotoxicity) assay, mantle cell lymphoma cells; assay type: cell-based; settings: Homo sapiens; 48 hours, CCK8 or Alamar Blue; curves of Fig. 1f-j; read-out: Half maximal inhibitory concentration (IC50) in cell line cytotoxicity assays, Mantle Cell Lymphoma
[3] = tested on: Hepatocellular carcinoma cells (Hep3B, HepG2, and Huh7); test: Cell viability (cytotoxicity) assay, hepatocellular carcinoma cells; assay type: cell-based; settings: Homo sapiens; 48 hours, CCK8 or Alamar Blue; curves of Fig. 1f-j; read-out: Half maximal inhibitory concentration (IC50) in cell line cytotoxicity assays, Hepatocellular Carcinoma
BRD2 (BD2) = biological target: T2, BRD2 (BD2) (Homo sapiens, UniProt P25440); test: AlphaScreen bromodomain binding assay, BRD2 BD2; settings: Fig. 1b; italicized values from the literature (italics not visible)
T2 construct: tagged bromodomains and acetylated histone peptides as; purchased Reaction Biology
T2 sequence (P25440 344-453 limits assumed): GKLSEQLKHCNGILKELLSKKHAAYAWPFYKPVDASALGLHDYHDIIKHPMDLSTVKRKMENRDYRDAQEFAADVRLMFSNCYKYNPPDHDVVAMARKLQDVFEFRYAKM

[4] = tested on: pRb Ser780 (downstream surrogate of CDK4/6 activity); test: Immunoblotting for Rb phosphorylation; assay type: cell-based, human; settings: Huh7, CHLA-255 and Jeko-1 cells, stimulated with 50 ng/mL IGF-1, increasing concentrations, 30 minutes
Text: (§1) from James Bradner (Dana-Farber Cancer Institute, Boston, MA). […]
(§2) from Novartis (Basel, Switzerland). Palbociclib was obtained from LC Laboratories (Woburn, MA). Recombinant human IGF-1 was from Peprotech (Rocky Hill, NJ). Antibodies specific for […]
(§3) Cell Signaling Technology (Beverly, MA). GAPDH antibody (GT239) was from GeneTex, Inc.
(§4) Molecular models were created to design and dock molecules in silico using the software engines AutoDock Vina1 and rDock2 and the crystal structures of BRD4 (PDB ID: 4CFK), PI3K (PDB ID: 4JPS) and CDK6 (PDB ID: 5L2T).
(§5) Bromodomain and kinase assays
(§6) Inhibition of BET family members was measured using Alpha Screen assays from Reaction Biology (Malvern, PA) with His -tagged bromodomains and acetylated histone peptides as ligands. CDK and PI3K isoform activities were measured using in vitro kinase assays from Reaction Biology and ThermoFisher Scientific (Waltham, MA), respectively. KINOME scan and BROMOscan assays were performed at Eurofins DiscoverX (Fremont, CA) with data analyzed […]
(§7) Protein expression and purification
(§8) BRD4 BD1 (aa 43-180) and BD2 (aa 342 -460) were expressed in E. coli BL21 (DE3) RIL in either Luria Broth or […] minimal media supplemented with 15NH4Cl. […]
(§9) or 100 µM in triplicate the following day. […] For CCK8, absorbance was measured at 450 nm; for Alamar Blue, fluorescence signals were read as emission at 590 nm after excitation at 560 nm. […]

BRD2 (BD1) = biological target: T3, BRD2 (BD1) (Homo sapiens, UniProt P25440); test: AlphaScreen bromodomain binding assay, BRD2 BD1; settings: Fig. 1b; italicized values from the literature (italics not visible)
T3 construct: tagged bromodomains and acetylated histone peptides as; purchased Reaction Biology
T3 sequence (P25440 74-180 limits assumed): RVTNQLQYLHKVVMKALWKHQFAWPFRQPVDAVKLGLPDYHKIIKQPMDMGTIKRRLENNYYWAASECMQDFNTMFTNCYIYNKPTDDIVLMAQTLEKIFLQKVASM

[5] = tested on: BRD4 binding to the MYC TSS in Huh7 and Jeko-1 cells; test: Chromatin immunoprecipitation of BRD4 at the MYC transcriptional start site; assay type: cell-based, human
Procedure: assay for comparison relative to the no-drug control and to the time zero number of cells for assessment of growth inhibition (values between 0 and 100) and lethality (values less than 0), […]
Hepatocellular carcinoma cells (Hep3B, HepG2, and Huh7), neuroblastoma cells (CHLA-255, CHLA-136, and SMS-KNCR), mantle cell lymphoma (Granta-519, Mino, and Jeko-1), or normal tonsillar epithelial cells (RRP008) were seeded in complete medium in 96-well tissue culture plates at 2.5 x 10^3 to 1 x 10^4 cells per well, respectively. Cells were incubated overnight to allow for attachment of adherent cells. […]
or 100 µM in triplicate the following day. Cells were incubated for 48 hours at 37 °C then treated with either CCK8 reagent (Dojindo Molecular Technologies, Rockville, MD) or Alamar Blue (ThermoFisher Scientific) and incubated for 3-6 hours at 37 °C. For CCK8, absorbance was measured at 450 nm; for Alamar Blue, fluorescence signals were read as emission at 590 nm after excitation at 560 nm. Averaged values were normalized as a percentage of control and plotted and regressed for dose response using GraphPad Prism (GraphPad Software, Inc., La […]
Chromatin immunoprecipitation
Chromatin immunoprecipitation assays using antibodies against BRD4 and an isotype control and primers designed to the MYC transcriptional site and a non-regulated upstream locus were performed as previously described8. […]

PI3Kδ = biological target: T4, PI3Kδ (Homo sapiens, UniProt O00329); test: In vitro kinase assay, PI3Kδ; assay type: biochemical; settings: Fig. 1b; italicized values from the literature (italics not visible)
T4 construct: purchased ThermoFisher Scientific
T4 sequence (O00329 whole entry): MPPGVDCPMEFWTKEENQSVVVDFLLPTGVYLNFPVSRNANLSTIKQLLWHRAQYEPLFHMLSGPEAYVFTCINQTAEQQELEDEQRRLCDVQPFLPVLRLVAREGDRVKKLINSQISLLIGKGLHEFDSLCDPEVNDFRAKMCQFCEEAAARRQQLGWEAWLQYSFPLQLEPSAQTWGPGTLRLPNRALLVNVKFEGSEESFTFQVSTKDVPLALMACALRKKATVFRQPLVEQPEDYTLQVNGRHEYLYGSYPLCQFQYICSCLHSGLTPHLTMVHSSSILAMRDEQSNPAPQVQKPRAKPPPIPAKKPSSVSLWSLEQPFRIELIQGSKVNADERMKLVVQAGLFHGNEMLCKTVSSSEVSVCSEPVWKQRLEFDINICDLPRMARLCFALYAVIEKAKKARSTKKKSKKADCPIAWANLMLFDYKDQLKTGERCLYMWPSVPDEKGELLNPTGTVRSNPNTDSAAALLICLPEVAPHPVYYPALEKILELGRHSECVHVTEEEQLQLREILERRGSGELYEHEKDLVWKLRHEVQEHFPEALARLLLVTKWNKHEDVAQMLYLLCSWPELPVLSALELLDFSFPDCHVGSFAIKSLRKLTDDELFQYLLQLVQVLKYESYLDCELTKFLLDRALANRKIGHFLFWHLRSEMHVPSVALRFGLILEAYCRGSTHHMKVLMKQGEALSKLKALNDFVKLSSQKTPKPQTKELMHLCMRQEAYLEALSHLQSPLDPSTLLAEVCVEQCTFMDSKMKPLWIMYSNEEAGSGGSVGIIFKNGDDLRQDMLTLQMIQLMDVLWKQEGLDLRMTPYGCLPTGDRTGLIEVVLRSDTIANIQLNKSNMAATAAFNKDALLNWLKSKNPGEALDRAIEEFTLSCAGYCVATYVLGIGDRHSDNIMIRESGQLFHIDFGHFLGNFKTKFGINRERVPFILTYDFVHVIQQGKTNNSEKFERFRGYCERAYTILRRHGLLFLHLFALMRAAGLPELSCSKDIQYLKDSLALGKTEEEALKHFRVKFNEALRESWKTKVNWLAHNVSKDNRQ
T4 sequence (P27986 whole entry partner): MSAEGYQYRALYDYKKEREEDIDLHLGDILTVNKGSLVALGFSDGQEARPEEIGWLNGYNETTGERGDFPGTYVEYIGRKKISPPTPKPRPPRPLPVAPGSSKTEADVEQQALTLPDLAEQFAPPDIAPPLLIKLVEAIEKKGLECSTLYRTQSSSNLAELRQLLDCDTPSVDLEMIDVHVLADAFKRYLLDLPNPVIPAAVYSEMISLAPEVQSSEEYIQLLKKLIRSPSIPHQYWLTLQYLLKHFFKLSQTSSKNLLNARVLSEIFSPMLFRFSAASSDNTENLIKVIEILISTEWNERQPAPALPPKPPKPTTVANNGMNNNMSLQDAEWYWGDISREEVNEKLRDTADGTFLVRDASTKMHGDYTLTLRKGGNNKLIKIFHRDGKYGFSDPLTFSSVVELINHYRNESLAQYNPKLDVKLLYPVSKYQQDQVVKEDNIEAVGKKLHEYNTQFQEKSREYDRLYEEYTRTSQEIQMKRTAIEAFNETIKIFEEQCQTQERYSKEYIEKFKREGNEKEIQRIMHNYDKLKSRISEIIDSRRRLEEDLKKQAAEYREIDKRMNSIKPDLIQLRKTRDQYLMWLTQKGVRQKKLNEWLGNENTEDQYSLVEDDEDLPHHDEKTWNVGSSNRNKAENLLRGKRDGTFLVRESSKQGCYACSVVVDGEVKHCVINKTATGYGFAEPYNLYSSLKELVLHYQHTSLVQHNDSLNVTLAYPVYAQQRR

[6] = tested on: pAKT Ser473 (downstream surrogate of PI3K activity); test: Immunoblotting for Akt phosphorylation; assay type: cell-based, human; settings: Huh7, CHLA-255 and Jeko-1 cells, stimulated with 50 ng/mL IGF-1, increasing concentrations, 30 minutes
Text: as §1, §2, §3, §4, §5, §6, §7, §8, §9

BRD3 (BD1) = biological target: T5, BRD3 (BD1) (Homo sapiens, UniProt Q15059); test: AlphaScreen bromodomain binding assay, BRD3 BD1; settings: Fig. 1b; italicized values from the literature (italics not visible)
T5 construct: tagged bromodomains and acetylated histone peptides as; purchased Reaction Biology
T5 sequence (Q15059 34-140 limits assumed): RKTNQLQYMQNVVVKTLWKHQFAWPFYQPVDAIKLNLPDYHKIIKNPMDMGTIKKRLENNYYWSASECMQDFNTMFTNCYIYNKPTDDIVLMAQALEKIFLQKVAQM

mTOR = mTOR (Homo sapiens, UniProt P42345); test: In vitro kinase assay, mTOR; assay type: biochemical; settings: Fig. 1b; italicized values from the literature (italics not visible)
[7] = tested on: neuroblastoma cells (CHLA-255, CHLA-136, and SMS-KNCR); test: Cell viability (cytotoxicity) assay, neuroblastoma cells; assay type: cell-based; settings: Homo sapiens, 48 hours, CCK8 or Alamar Blue, curves of Fig. 1f-j, read-out: Half maximal inhibitory concentration (IC50) in cell line cytotoxicity assays, Neuroblastoma
BRD3 (BD2) = biological target: T6, BRD3 (BD2) (Homo sapiens, UniProt Q15059); test: AlphaScreen bromodomain binding assay, BRD3 BD2; settings: Fig. 1b; italicized values from the literature (italics not visible)
T6 construct: tagged bromodomains and acetylated histone peptides as; purchased Reaction Biology
T6 sequence (Q15059 306-415 limits assumed): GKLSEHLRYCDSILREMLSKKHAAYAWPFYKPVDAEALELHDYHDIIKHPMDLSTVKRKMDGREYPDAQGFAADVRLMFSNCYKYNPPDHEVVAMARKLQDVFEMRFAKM

T1 sequence (Q00534 whole entry): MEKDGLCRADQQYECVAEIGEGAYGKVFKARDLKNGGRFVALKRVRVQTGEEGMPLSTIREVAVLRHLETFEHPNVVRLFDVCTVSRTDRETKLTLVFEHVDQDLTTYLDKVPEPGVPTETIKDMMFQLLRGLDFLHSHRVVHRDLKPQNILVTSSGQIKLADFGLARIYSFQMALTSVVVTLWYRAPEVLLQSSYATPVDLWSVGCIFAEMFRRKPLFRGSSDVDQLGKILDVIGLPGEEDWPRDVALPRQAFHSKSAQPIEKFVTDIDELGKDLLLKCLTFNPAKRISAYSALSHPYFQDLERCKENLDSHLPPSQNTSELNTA
T1 sequence (P24385 whole entry partner): as the sequence (P24385 whole entry partner) above

For `CN(C)C(=O)c1cc2cnc(Nc3ccc(-c4csc5c(=O)cc(N6CCOCC6)oc45)cc3)nc2n1C1CCCC1` [SRX3177], the pIC50 (CDK6) was 8.48, the IC50 at 48 h [1] was 34000 nM and the pIC50 (CDK4) was greater than 8.60. For the same compound, the pIC50 [2] was 6.08, the pIC50 [3] was 6.19 and the pIC50 (BRD2 (BD2)) was 6.00. The “levels of Rb phosphorylation” value [4] was “decrease in levels of Rb phosphorylation”, the pIC50 (BRD2 (BD1)) was 5.85 and the “occupancy of BRD4 at the transcriptional start site (TSS) of MYC by ChIP” value [5] was “abrogated binding of BRD4 to the MYC TSS”. The pIC50 (PI3Kδ) was 7.08, the “levels of Akt phosphorylation” value [6] was “decrease in levels” and the pIC50 (BRD3 (BD1)) was 6.97. The pIC50 (mTOR) was 5.16, the pIC50 [7] was 6.26 and the pIC50 (BRD3 (BD2)) was 6.65.
